The results in this text go back to KR20180087157A, “Blt 저해 활성을 갖는 화합물을 유효성분으로 포함하는 만성 폐쇄성 폐질환 예방 또는 치료용 약학적 조성물” (동국대학교 산학협력단, priority 2017, dated 2018).

The term inhibition denotes the drop in the measured response relative to a control, in per cent.

Data set [1] concerns BLT2-expressing cells [BLT2가 발현된 세포 (CHO-BLT2 cells)]. The data set is described as follows: Growth inhibition of BLT2-expressing cells (MTT cell viability). The class given is cell-based. As to conditions: for inhibition at 10 µM: 10 μM pretreatment 1 h, then LTB4 300 nM, 24 h, read-out: growth inhibition effect; for inhibition of BLT2-induced cell proliferation: 10 μM, LTB4 300 nM, result in words.

For data set [2] the test system is unchanged. The data set is described as follows: LTB4-induced BLT2-dependent chemotactic motility (Transwell), CHO-BLT2. It is filed as cell-based, human. To be noted: for IC50: read-out: IC50 (50% inhibitory concentration), chemotaxis, CHO-BLT2 cells, LTB4-induced, serum-free; for inhibition of chemotaxis: LTB4-stimulated CHO-BLT2 cells, result in words; for inhibition at 10 µM: 10 μM pretreatment, compared with LTB4 (300 nM) treatment (DMSO+), read-out: chemotaxis inhibition.

In data set [3] the test system is BLT1-expressing cells [BLT1이 발현된 세포 (CHO-BLT1)]. Nature of the data set: LTB4-induced chemotactic motility (Transwell), CHO-BLT1. The class given is cell-based.
Data set [4] has as its system inflammatory cells (neutrophils) [염증세포(호중구)]. The data set is described as follows: Inflammatory cell infiltration in BALF, cigarette smoke and LPS induced COPD mice. The class given is in vivo, mouse. As to conditions: C57BL/6N mice, oral 1 h before smoke, result in words.
Another data set relates to neutrophil elastase (NE). Nature of the data set: NE measurement in BALF, cigarette smoke and LPS induced COPD mice. As to conditions: C57BL/6N mice, oral 1 h before smoke, result in words. It is filed as in vivo, mouse.
The subject of data set [5] is reactive oxygen species (ROS). The data set is described as follows: ROS measurement in BALF, cigarette smoke and LPS induced COPD mice. The class given is in vivo, mouse. As to conditions: C57BL/6N mice, oral 1 h before smoke, result in words.
The subject of another data set is TNF-α. Nature of the data set: TNF-α measurement in BALF, cigarette smoke and LPS induced COPD mice. It is filed as in vivo, mouse. To be noted: C57BL/6N mice, oral 1 h before smoke, result in words.
Another data set deals with IL-6. Nature of the data set: IL-6 measurement in BALF, cigarette smoke and LPS induced COPD mice. It is filed as in vivo, mouse. As to conditions: C57BL/6N mice, oral 1 h before smoke, result in words.
Data set [6] relates to cigarette smoke and lipopolysaccharide induced chronic obstructive pulmonary disease animal model [담배연기 및 지질다당류로 유발된 만성 폐쇄성 폐질환 동물 모델]. The data set is described as follows: H&E staining of lung tissue, cigarette smoke and LPS induced COPD mice. As to conditions: C57BL/6N mice; for improvement of lung inflammation: cigarette smoke + LPS COPD model, overall result in words; for infiltration of inflammatory cells (H&E): cigarette smoke + LPS, 10 or 20 mg/kg oral, lung tissue, compared with COPD group, result in words. It is filed as in vivo, mouse.

Data set [7] has as its system BLT2-expressing cells [BLT2가 발현된 세포 (CHO-BLT2 cells)]. Nature of the data set: LPA-induced chemotactic motility (Transwell), CHO-BLT2. It is filed as cell-based, human.
Where [8] appears, read: 10 μM pretreatment, compared with LTB4 (10 nM) treatment (DMSO+), result in words.

In the case of `CCCCC(=O)N(Cc1ccc(-c2ccc(O)cc2)cc1)c1cccc(C(F)(F)F)c1` [AC-1635, N-((4'-hydroxybiphenyl-4-yl)methyl)-N-(3-(trifluoromethyl)phenyl)pentanamide], in [1], the inhibition at 10 µM was 71.6% and the “inhibition of BLT2-induced cell proliferation” value was “매우 우수한 효율로 억제”.

For the compound `CCCCC(=O)N(CC#Cc1ccc(C(=O)O)cc1)c1ccccc1` [LMT-1013, 4-(3-(N-phenylpentanamido)prop-1-yn-1-yl)benzoic acid], in [1], the “inhibition of BLT2-induced cell proliferation” value is recorded as “매우 우수한 효율로 억제”. Further, the IC50 in data set [2] (Homo sapiens) was 62.4 nM; in data set [3] (read-out: IC50 (50% inhibitory concentration), chemotaxis, CHO-BLT1 cells, LTB4-induced, serum-free), not below 10000 nM. Moreover, the inhibition of chemotaxis entry in [2] is “현저히 저해”. Besides, the “infiltration of inflammatory cells (neutrophils)” value in data set [4] is listed as “유의적으로 감소”. Besides, the NE production result in the data set with neutrophil elastase (NE) is recorded as “유의적으로 감소”. Also, the ROS production entry in [5] was “유의적으로 감소”. For the same compound, the TNF-α production result with TNF-α is recorded as “현저히 감소”. The IL-6 production entry in the data set with IL-6 is “현저히 감소”. The “improvement of lung inflammation” value in data set [6] is listed as “폐의 염증을 개선하는 효능”. In addition, the “infiltration of inflammatory cells (H&E)” value in data set [6] is reported as “감소”.

With `COc1ccc(-c2ccc(CN(C(C)=O)c3cccc(F)c3)cc2)cc1` [AC-1646, N-(3-fluorophenyl)-N-((4'-methoxybiphenyl-4-yl)methyl)acetamide], in data set [1], the inhibition at 10 µM is 72.1% and the “inhibition of BLT2-induced cell proliferation” value was “매우 우수한 효율로 억제”.

`CCCCC(=O)N(CC#Cc1ccc(C(=O)N2CCN(C(C)C)CC2)cc1)c1ccc(F)cc1` [LMT-841, N-(4-fluorophenyl)-N-(3-(4-(4-isopropylpiperazine-1-carbonyl)phenyl)prop-2-ynyl)pentanamide]: in data set [1], the inhibition at 10 µM came out at 60% and the “inhibition of BLT2-induced cell proliferation” value was “매우 우수한 효율로 억제”.

Consider `CCCCCCCC/C=C\CCCCCCCC(=O)OC[C@@H](O)COP(=O)(O)O` [LPA, lysophosphatidic acid, reference compound], for which the fold induction at 0.1 µM in data set [7] (Homo sapiens, 3 h, LPA 100 nM (DMSO+) compared with ethanol (DMSO-), read-out: increase in cell chemotaxis) stood at 3.4.

For the compound `CCCCC(=O)N(CC#Cc1ccc(C(=O)N2CCN(C(C)C)CC2)cc1)c1ccccc1` [LMT-696, N-(3-(4-(4-isopropylpiperazine-1-carbonyl)phenyl)prop-2-ynyl)-N-phenylpentanamide], in [1], the “inhibition of BLT2-induced cell proliferation” value is “매우 우수한 효율로 억제”. In data set [2] (Homo sapiens), the IC50 turned out to be 2000 nM and the inhibition at 10 µM amounted to 70.3%. The inhibition of chemotaxis entry in data set [2] was “현저히 저해”. In [3] (setting [8]), the chemotaxis inhibition result is listed as “억제되지 않음”.

Consider `CCCCC(=O)N(CC#Cc1cccc(C(=O)N2CCN(C(C)C)CC2)c1)c1ccccc1` [LMT-842, N-(3-(3-(4-isopropylpiperazine-1-carbonyl)phenyl)prop-2-ynyl)-N-phenylpentanamide], for which, in data set [1], the inhibition at 10 µM turned out to be 70% and the “inhibition of BLT2-induced cell proliferation” value was “매우 우수한 효율로 억제”.

On to `CCCCC(=O)N(Cc1ccc(-c2ccc(OCC(=O)O)cc2)cc1)c1cccc(F)c1` [AC-1074, 2-(4'-((N-(3-fluorophenyl)pentanamido)methyl)biphenyl-4-yloxy)acetic acid], for which, in data set [2], the inhibition of chemotaxis entry is listed as “현저히 저해”. In addition, the change in chemotaxis result is on record as “변화가 없음” in data set [3] (setting [8]) and “변화가 없음” in data set [7] (10 μM pretreatment, compared with LPA (100 nM) treatment (DMSO+), result in words).

On to `CCCCC/C=C\C[C@@H](O)/C=C/C=C/C=C\[C@@H](O)CCCC(=O)O` [LTB4, Leukotriene B4, reference compound], for which the fold induction at 0.3 µM in data set [2] (Homo sapiens, 3 h, LTB4 300 nM (DMSO+) compared with ethanol (DMSO-), read-out: increase in cell chemotaxis) was 2.4. Moreover, the “increase in cell chemotaxis” value in data set [2] (LTB4 300 nM (DMSO+) compared with ethanol (DMSO-), 180 min, 0.3 µM) turned out to be 2.9 fold; in [3] (cho-blt1 cells, 3 h, 0.01 µM), 2.8 fold. In addition, the fold induction at 0.01 µM in data set [3] (3 h, LTB4 10 nM (DMSO+) compared with ethanol (DMSO-), read-out: increase in cell chemotaxis) stood at 2.2.

As for `CCCCC(=O)N(CC#Cc1ccc(C(=O)NC(C)C(=O)OC)cc1)c1ccccc1` (centres unmarked) [LMT-1018, methyl 2-(4-(3-(N-phenylpentanamido)prop-1-yn-1-yl)benzamido)propanoate], in data set [1], the inhibition at 10 µM turned out to be 71.6% and the “inhibition of BLT2-induced cell proliferation” value is given as “매우 우수한 효율로 억제”.

Consider `CCCCC(=O)N(CC#Cc1ccc(C(=O)N2CCN(C)CC2)cc1)c1ccccc1` [LMT-692, N-(3-(4-(4-methylpiperazine-1-carbonyl)phenyl)prop-2-ynyl)-N-phenylpentanamide], for which, in data set [1], the “inhibition of BLT2-induced cell proliferation” value was “매우 우수한 효율로 억제”. In data set [2] (Homo sapiens), the IC50 was determined as 7570 nM and the inhibition at 10 µM was 66%. The inhibition of chemotaxis entry in [2] is recorded as “현저히 저해”. In data set [3] (setting [8]), the chemotaxis inhibition result is listed as “억제되지 않음”.

With `CCCCC(=O)N(Cc1ccc(-c2ccc(O)cc2)cc1)c1cccc(Br)c1` [AC-1632, N-(3-bromophenyl)-N-((4'-hydroxybiphenyl-4-yl)methyl)pentanamide], in [1], the inhibition at 10 µM amounted to 78.7% and the “inhibition of BLT2-induced cell proliferation” value was “매우 우수한 효율로 억제”.

`CCCCC(=O)N(Cc1ccc(-c2ccc(C(=O)N3CCN(C(C)C)CC3)cc2)cc1)c1ccc(F)cc1` [AC-1650, N-(4-fluorophenyl)-N-((4'-(4-isopropylpiperazine-1-carbonyl)biphenyl-4-yl)methyl)pentanamide]: in data set [1], the inhibition at 10 µM is 82.2% and the “inhibition of BLT2-induced cell proliferation” value is listed as “매우 우수한 효율로 억제”.

As to `CCCCC(=O)N(CC#Cc1cccc(C(=O)N2CCNCC2)c1)c1ccccc1` [LMT-837, N-phenyl-N-(3-(3-(piperazine-1-carbonyl)phenyl)prop-2-ynyl)pentanamide], in [1], the inhibition at 10 µM stood at 65% and the “inhibition of BLT2-induced cell proliferation” value was “매우 우수한 효율로 억제”.

`CCCCC(=O)N(CC#Cc1ccc(C(=O)N(CC)CC)cc1)c1ccccc1` [LMT-883, N,N-diethyl-4-(3-(N-phenylpentanamido)prop-1-ynyl)benzamide]: in data set [1], the inhibition at 10 µM was found to be 99% and the “inhibition of BLT2-induced cell proliferation” value was “매우 우수한 효율로 억제”.

`CCCCC(=O)N(CC#Cc1ccc(C(=O)NC(C)C(=O)O)cc1)c1ccccc1` (centres unmarked) [LMT-1019, 2-(4-(3-(N-phenylpentanamido)prop-1-yn-1-yl)benzamido)propanoic acid]: in data set [1], the inhibition at 10 µM is 99% and the “inhibition of BLT2-induced cell proliferation” value is given as “매우 우수한 효율로 억제”.

As to `CCCCC(=O)N(CC#Cc1ccc(C(=O)N2CCNCC2)cc1)c1ccccc1` [LMT-694, N-phenyl-N-(3-(4-(piperazine-1-carbonyl)phenyl)prop-2-ynyl)pentanamide], the inhibition at 10 µM in data set [2] (Homo sapiens) was 90%. Further, the chemotaxis inhibition result in data set [3] (setting [8]) is “억제되지 않음”.

For `CCCCC(=O)N(CC#Cc1ccc(C(=O)NCCN(C)C)cc1)c1ccccc1` [LMT-1016, N-(2-(dimethylamino)ethyl)-4-(3-(N-phenylpentanamido)prop-1-yn-1-yl)benzamide], in data set [1], the inhibition at 10 µM was 99% and the “inhibition of BLT2-induced cell proliferation” value is listed as “매우 우수한 효율로 억제”.

`CCCCC(=O)N(CC#Cc1ccc(C(=O)N2CCN(C(C)C)CC2)cc1)c1cccc(F)c1` [LMT-886, N-(3-fluorophenyl)-N-(3-(4-(4-isopropylpiperazine-1-carbonyl)phenyl)prop-2-ynyl)pentanamide]: in data set [1], the inhibition at 10 µM amounted to 99% and the “inhibition of BLT2-induced cell proliferation” value is reported as “매우 우수한 효율로 억제”. The “infiltration of inflammatory cells (neutrophils)” value in data set [4] is listed as “유의적으로 감소”. Besides, the NE production entry in the data set on neutrophil elastase (NE) is on record as “유의적으로 감소”. Also, the ROS production entry in [5] is listed as “유의적으로 감소”. In the data set with TNF-α, the TNF-α production entry is “현저히 감소”. Also, the IL-6 production result with IL-6 was “현저히 감소”. Also, in data set [6], the “improvement of lung inflammation” value is recorded as “폐의 염증을 개선하는 효능” and the “infiltration of inflammatory cells (H&E)” value is reported as “감소”.
